# Assay results taken from patent publication US9944646B2, “Bicyclic azaheterocyclobenzylamines as PI3K inhibitors” (Incyte Corporation, priority 2012, dated 2018).
# Structures can show the parent of a compound that is named as a salt.
# Target: PI3Kδ (Homo sapiens (Human), UniProt O00329)
# Assay: PI3K Enzyme Assay (Example A2), [γ-33P]ATP filter plate
# Format: biochemical
# Protocol: Example A2: PI3K Enzyme Assay
# Lipid kinase substrate, phosphoinositol-4,5-bisphosphate (PIP2), are purchased from Echelon Biosciences (Salt Lake City, Utah). PI3K isoforms α, β, δ and γ are purchased from Millipore (Bedford, Mass.). ATP, MgCl2, DTT, EDTA, MOPS and CHAPS are purchased from Sigma-Aldrich (St. Louis, Mo.).
# The kinase reaction are conducted in clear-bottom 96-well plate from Thermo Fisher Scientific in a final volume of 24 μL. Inhibitors are first diluted serially in DMSO and added to the plate wells before the addition of other reaction components. The final concentration of DMSO in the assay is 0.5%. The PI3K assays are carried out at room temperature in 20 mM MOPS, pH 6.7, 10 mM MgCl2, 5 mM DTT and CHAPS 0.03%. The reaction mixture is prepared containing 50 µM PIP2, kinase and varying concentration of inhibitors. Reactions are initiated by the addition of ATP containing 2.2 μCi [γ-^33P]ATP to a final concentration of 1000 μM. The final concentration of PI3K isoforms α, β, δ and γ in the assay were 1.3, 9.4, 2.9 and 10.8 nM, respectively. Reactions are incubated for 180 minutes and terminated by the addition of 100 μL of 1 M potassium phosphate pH 8.0, 30 mM EDTA quench buffer. A 100 μL aliquot of the reaction solution are then transferred to 96-well Millipore MultiScreen IP […] PVDF filter plate (The filter plate is prewetted with 200 μL 100% ethanol, distilled water, and 1 M potassium phosphate pH 8.0, respectively). The filter plate is aspirated on a Millipore Manifold under vacuum and washed with 18×200 μL wash buffer containing 1 M potassium phosphate pH 8.0 and 1 mM ATP. After drying by aspiration and blotting, the plate is air dried in an incubator at 37° C. overnight. Packard TopCount adapter (Millipore) is then attached to the plate followed with addition of 120 μL Microscint 20 scintillation cocktail (Perkin Elmer) in each well. After the plate sealing, the radioactivity of the product is determined by scintillation counting on Topcount (Perkin-Elmer). IC50 determination is performed by fitting the curve of percent control activity versus the log of the inhibitor concentration using the GraphPad Prism 3.0 software.
# PI3Kδ, sequence (O00329 whole entry): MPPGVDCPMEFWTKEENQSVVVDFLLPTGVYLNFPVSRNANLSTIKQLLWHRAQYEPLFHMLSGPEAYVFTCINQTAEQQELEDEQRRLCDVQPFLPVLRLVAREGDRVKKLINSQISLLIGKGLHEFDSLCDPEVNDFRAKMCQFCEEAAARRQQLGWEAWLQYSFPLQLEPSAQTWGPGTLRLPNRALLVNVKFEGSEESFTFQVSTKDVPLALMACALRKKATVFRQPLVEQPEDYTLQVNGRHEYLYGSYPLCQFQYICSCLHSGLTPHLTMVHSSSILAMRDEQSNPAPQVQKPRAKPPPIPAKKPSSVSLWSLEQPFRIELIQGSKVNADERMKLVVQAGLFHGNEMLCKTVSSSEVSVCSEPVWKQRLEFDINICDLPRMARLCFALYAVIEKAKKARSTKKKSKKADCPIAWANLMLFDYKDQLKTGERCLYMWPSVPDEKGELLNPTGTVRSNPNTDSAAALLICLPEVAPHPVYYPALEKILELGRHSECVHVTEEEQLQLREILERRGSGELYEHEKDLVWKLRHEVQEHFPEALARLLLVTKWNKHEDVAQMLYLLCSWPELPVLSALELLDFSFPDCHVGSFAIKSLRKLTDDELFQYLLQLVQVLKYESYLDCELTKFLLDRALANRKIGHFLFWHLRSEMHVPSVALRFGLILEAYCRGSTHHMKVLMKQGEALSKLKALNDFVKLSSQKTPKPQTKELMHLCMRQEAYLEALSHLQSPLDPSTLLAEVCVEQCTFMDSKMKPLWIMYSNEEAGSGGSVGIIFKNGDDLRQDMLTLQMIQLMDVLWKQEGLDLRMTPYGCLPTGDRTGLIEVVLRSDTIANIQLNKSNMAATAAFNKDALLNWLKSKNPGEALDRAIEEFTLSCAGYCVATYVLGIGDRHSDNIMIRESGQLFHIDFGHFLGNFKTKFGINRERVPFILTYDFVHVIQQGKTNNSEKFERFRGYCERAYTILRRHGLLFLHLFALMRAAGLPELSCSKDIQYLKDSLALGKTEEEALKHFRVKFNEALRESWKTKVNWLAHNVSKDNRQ
# PI3Kδ, sequence (P27986 whole entry partner): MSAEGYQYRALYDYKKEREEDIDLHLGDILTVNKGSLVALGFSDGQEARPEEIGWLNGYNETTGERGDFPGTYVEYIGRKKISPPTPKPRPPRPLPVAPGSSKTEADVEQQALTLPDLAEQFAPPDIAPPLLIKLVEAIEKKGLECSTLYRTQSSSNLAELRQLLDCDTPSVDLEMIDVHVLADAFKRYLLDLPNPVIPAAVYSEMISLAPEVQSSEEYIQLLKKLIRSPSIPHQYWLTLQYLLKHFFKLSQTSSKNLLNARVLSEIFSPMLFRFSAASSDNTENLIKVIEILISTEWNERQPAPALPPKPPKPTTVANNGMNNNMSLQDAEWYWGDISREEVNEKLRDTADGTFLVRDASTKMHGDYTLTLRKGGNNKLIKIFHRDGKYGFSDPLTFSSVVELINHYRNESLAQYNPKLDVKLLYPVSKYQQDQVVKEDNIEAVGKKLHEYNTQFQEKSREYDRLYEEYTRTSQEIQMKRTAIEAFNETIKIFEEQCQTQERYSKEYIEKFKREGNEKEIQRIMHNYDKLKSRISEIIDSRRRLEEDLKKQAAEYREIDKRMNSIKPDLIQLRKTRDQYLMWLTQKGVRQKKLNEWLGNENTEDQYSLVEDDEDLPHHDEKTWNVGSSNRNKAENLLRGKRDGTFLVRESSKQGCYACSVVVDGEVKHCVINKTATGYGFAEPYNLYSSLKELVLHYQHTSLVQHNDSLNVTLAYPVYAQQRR
row,Compound,IC50 [µM]
1,"Cc1nn(C(C)c2cc(Cl)c(C#N)c3c2OC(C)CN(C2CN(C(=O)NC(C)C)C2)C3)c2ncnc(N)c12 (single isomer, unassigned) [Example 102, 3-[9-[1-(4-amino-3-methyl-1H-pyrazolo[3,4-d]pyrimidin-1-yl)ethyl]-7-chloro-6-cyano-2-methyl-2,3-dihydro-1,4-benzoxazepin-4(5H)-yl]-N-isopropylazetidine-1-carboxamide]",≤ 0.1
2,"Cc1nn(C(C)c2cc(Cl)c(C#N)c3c2OC(C)CN(C2CN(CCO)C2)C3)c2ncnc(N)c12 (single isomer, unassigned) [Example 103, 9-[1-(4-amino-3-methyl-1H-pyrazolo[3,4-d]pyrimidin-1-yl)ethyl]-7-chloro-4-[1-(2-hydroxyethyl)azetidin-3-yl]-2-methyl-2,3,4,5-tetrahydro-1,4-benzoxazepine-6-carbonitrile]",≤ 0.1
3,"Cc1nn(C(C)c2cc(Cl)c(C#N)c3c2OC(C)CN(C2CN(CCO)C2)C3)c2ncnc(N)c12 (single isomer, unassigned) [Example 104, 9-[1-(4-amino-3-methyl-1H-pyrazolo[3,4-d]pyrimidin-1-yl)ethyl]-7-chloro-4-[1-(2-hydroxyethyl)azetidin-3-yl]-2-methyl-2,3,4,5-tetrahydro-1,4-benzoxazepine-6-carbonitrile]",≤ 0.1
4,"Cc1nn(C(C)c2cc(Cl)c(C#N)c3c2OC(C)CN(C2CN(S(=O)(=O)N(C)C)C2)C3)c2ncnc(N)c12 (single isomer, unassigned) [Example 105, 3-[9-[1-(4-amino-3-methyl-1H-pyrazolo[3,4-d]pyrimidin-1-yl)ethyl]-7-chloro-6-cyano-2-methyl-2,3-dihydro-1,4-benzoxazepin-4(5H)-yl]-N,N-dimethylazetidine-1-sulfonamide]",≤ 0.1
5,"Cc1nn(C(C)c2cc(Cl)c(C#N)c3c2OC(C)CN(C2CN(S(=O)(=O)N(C)C)C2)C3)c2ncnc(N)c12 (single isomer, unassigned) [Example 106, 3-[9-[1-(4-amino-3-methyl-1H-pyrazolo[3,4-d]pyrimidin-1-yl)ethyl]-7-chloro-6-cyano-2-methyl-2,3-dihydro-1,4-benzoxazepin-4(5H)-yl]-N,N-dimethylazetidine-1-sulfonamide]",≤ 0.1
6,"Cc1nn(C(C)c2cc(Cl)c(C#N)c3c2OC(C)CN(CC#N)C3)c2ncnc(N)c12 (single isomer, unassigned) [Example 107, 9-[1-(4-amino-3-methyl-1H-pyrazolo[3,4-d]pyrimidin-1-yl)ethyl]-7-chloro-4-(cyanomethyl)-2-methyl-2,3,4,5-tetrahydro-1,4-benzoxazepine-6-carbonitrile]",≤ 0.1
7,"Cc1nn(C(C)c2cc(Cl)c(C#N)c3c2OC(C)CN(CC#N)C3)c2ncnc(N)c12 (single isomer, unassigned) [Example 108, 9-[1-(4-amino-3-methyl-1H-pyrazolo[3,4-d]pyrimidin-1-yl)ethyl]-7-chloro-4-(cyanomethyl)-2-methyl-2,3,4,5-tetrahydro-1,4-benzoxazepine-6-carbonitrile]",≤ 0.1
8,"CC(=O)N1CC(N2CCOc3c(C(C)n4nc(C)c5c(N)ncnc54)cc(Cl)c(F)c3C2)C1 (stereo not drawn) [Example 34, 1-{1-[4-(1-Acetylazetidin-3-yl)-7-chloro-6-fluoro-2,3,4,5-tetrahydro-1,4-benzoxazepin-9-yl]ethyl}-3-methyl-1H-pyrazolo[3,4-d]pyrimidin-4-amine]",≤ 0.1
9,"Cc1nn(C(C)c2cc(Cl)c(F)c3c2O[C@@H](C)CN(C2CC(C(=O)O)C2)C3)c2ncnc(N)c12 (stereo partly drawn) [Example 41, 3-[9-[1-(4-Amino-3-methyl-1H-pyrazolo[3,4-d]pyrimidin-1-yl)ethyl]-7-chloro-6-fluoro-2-methyl-2,3-dihydro-1,4-benzoxazepin-4(5H)-yl]cyclobutanecarboxylic acid trifluoroacetate]",≤ 0.1
10,Cc1nn(C(C)c2cc(Cl)c(F)c3c2O[C@@H](C)CN(C2CC(C(N)=O)C2)C3)c2ncnc(N)c12 (stereo partly drawn) [Example 43],≤ 0.1
11,"CC(=O)N1CC(N2CCOc3c(C(C)n4nc(C)c5c(N)ncnc54)cc(Cl)c(C#N)c3C2)C1 (stereo not drawn) [Example 46, 4-(1-Acetylazetidin-3-yl)-9-[1-(4-amino-3-methyl-1H-pyrazolo[3,4-d]pyrimidin-1-yl)ethyl]-7-chloro-2,3,4,5-tetrahydro-1,4-benzoxazepine-6-carbonitrile]",≤ 0.1

# Second part, the molecule after the results:
row,IC50 [µM],Compound
1,≤ 0.1,"Cc1nn(C(C)c2cc(Cl)c(C#N)c3c2OC(C)CN(CC(N)=O)C3)c2ncnc(N)c12 (single isomer, unassigned) [Example 109, 2-[9-[1-(4-amino-3-methyl-1H-pyrazolo[3,4-d]pyrimidin-1-yl)ethyl]-7-chloro-6-cyano-2-methyl-2,3-dihydro-1,4-benzoxazepin-4(5H)-yl]acetamide]"
2,≤ 0.1,"Cc1nn(C(C)c2cc(Cl)c(C#N)c3c2OC(C)CN(CC(N)=O)C3)c2ncnc(N)c12 (single isomer, unassigned) [Example 110, 2-[9-[1-(4-amino-3-methyl-1H-pyrazolo[3,4-d]pyrimidin-1-yl)ethyl]-7-chloro-6-cyano-2-methyl-2,3-dihydro-1,4-benzoxazepin-4(5H)-yl]acetamide]"
3,≤ 0.1,"COCCN1Cc2c(C#N)c(Cl)cc(C(C)n3nc(C)c4c(N)ncnc43)c2OC(C)C1 (single isomer, unassigned) [Example 111, 9-[1-(4-amino-3-methyl-1H-pyrazolo[3,4-d]pyrimidin-1-yl)ethyl]-7-chloro-4-(2-methoxyethyl)-2-methyl-2,3,4,5-tetrahydro-1,4-benzoxazepine-6-carbonitrile]"
4,≤ 0.1,"COCCN1Cc2c(C#N)c(Cl)cc(C(C)n3nc(C)c4c(N)ncnc43)c2OC(C)C1 (single isomer, unassigned) [Example 112, 9-[1-(4-amino-3-methyl-1H-pyrazolo[3,4-d]pyrimidin-1-yl)ethyl]-7-chloro-4-(2-methoxyethyl)-2-methyl-2,3,4,5-tetrahydro-1,4-benzoxazepine-6-carbonitrile]"
5,≤ 0.1,"CNC(=O)C1CC(N2Cc3c(C#N)c(Cl)cc(C(C)n4nc(C)c5c(N)ncnc54)c3OC(C)C2)C1 (single isomer, unassigned) [Example 113, 3-[9-[1-(4-amino-3-methyl-1H-pyrazolo[3,4-d]pyrimidin-1-yl)ethyl]-7-chloro-6-cyano-2-methyl-2,3-dihydro-1,4-benzoxazepin-4(5H)-yl]-N-methylcyclobutanecarboxamide]"
6,≤ 0.1,"CNC(=O)C1CC(N2Cc3c(C#N)c(Cl)cc(C(C)n4nc(C)c5c(N)ncnc54)c3OC(C)C2)C1 (single isomer, unassigned) [Example 114, 3-[9-[1-(4-amino-3-methyl-1H-pyrazolo[3,4-d]pyrimidin-1-yl)ethyl]-7-chloro-6-cyano-2-methyl-2,3-dihydro-1,4-benzoxazepin-4(5H)-yl]-N-methylcyclobutanecarboxamide]"
7,≤ 0.1,"CNC(=O)C1CC(N2Cc3c(C#N)c(Cl)cc(C(C)n4nc(C)c5c(N)ncnc54)c3OC(C)C2)C1 (single isomer, unassigned) [Example 115, 3-[9-[1-(4-amino-3-methyl-1H-pyrazolo[3,4-d]pyrimidin-1-yl)ethyl]-7-chloro-6-cyano-2-methyl-2,3-dihydro-1,4-benzoxazepin-4(5H)-yl]-N-methylcyclobutanecarboxamide]"
